The text below walks through data of PMC12389155 (Pharmaceuticals, 2025).

In general, IC50 refers to the concentration at which inhibition is half-maximal.

One data set has as its system HCT 116 cells. As to the kind of experiment: MTT cytotoxicity assay in HCT 116 colorectal cancer cells. Format: cell-based. As to conditions: Homo sapiens, HCT 116, 48 h exposure, ± SEM, read-out: IC50 (cytotoxic activity). How it is done: (§1) The colorectal cancer cell line HCT 116 (ATCC CCL-247) was grown in Roswell Park Memorial Institute 1640 Medium (RPMI, Biochrom Ltd., Cambridge, UK), and the breast cancer cell line MDA-MB-231 (ATCC HTB-26, American Type Culture Collection, Manassas, VA, USA) was maintained in Dulbecco’s Modified Eagle Medium (DMEM, Biochrom Ltd., Cambridge, UK) supplemented with 10% (v/v) fetal bovine serum (FBS, Biochrom Ltd., Cambridge, UK) and 1% (v/v) penicillin-streptomycin (p/s, Biochrom) on tissue-culture-treated flasks. The human fibroblast BJ-5ta cell line (ATCC CRL-2522) was grown in a 4:1 proportion of DMEM:Medium 199 (PAN-Biotech GmbH, Aidenbach, Germany), supplemented with 10% (v/v) FBS, 1% (v/v) p/s, and 0.01% (v/v) hygromycin B (Sigma-Aldrich, St. Louis, MO, USA). All cell lines were authenticated and tested for mycoplasma contamination. Cells were incubated at 37 °C with 5% CO2 and 95% relative humidity. […] Cell counts were determined using a hemocytometer. […]
(§2) After the incubation period, the culture media was discarded from each well, and 100 µL (0.5 mg/mL) was added. […] Cell viability was determined based on the absorbance measured at 570 nm using a microplate reader (Cytation 3, BioTek Instruments, Winooski, VT, USA). The absorbance of untreated cells or DMSO-treated cells was considered at 100% cell viability. […]
Background: Tetrazolium dyes change colour on reduction, which living cells bring about.

The next data set concerns MDA-MB-231 cells. As to the kind of experiment: MTT cytotoxicity assay in MDA-MB-231 triple-negative breast cancer cells. Format: cell-based. The settings on record: Homo sapiens, MDA-MB-231, 48 h exposure, ± SEM, read-out: IC50 (cytotoxic activity). How it is done: as §1, §2
For the next data set, the system named is COR-L23 cells. Set-up: method as in PMID 21366300. The settings on record: COR-L23 lung cancer cells; read-out: IC50 nucleoside-nucleobase transport inhibition; cited from earlier work.
Another data set concerns EGFR. The arrangement: method as in PMID 22753156, PMID 15199094. The settings on record: cited from earlier work.
A further data set can be described thus: Aqueous solubility. Format: physicochemical.

On to `O=c1[nH]cc(F)c(=O)[nH]1` [5-FU, 5-Fluorouracil], for which the values for the IC50 in the data set with HCT 116 cells and with MDA-MB-231 cells were 10400 ± 680 nM and 183000 ± 17100 nM, respectively.

With `COc1ccc(CCc2nc(NCC(C)O)nc3c(NCc4ccc(OC)c(OC)c4)nc(CCC(C)OC(=O)Nc4ccccc4)nc23)cc1OC` (stereo not drawn) [IV], the IC50 in the data set with COR-L23 cells is 8 nM.

Take `COc1ccc(NC(=O)OC(C)CCc2nc(NCc3ccc(OC)c(OC)c3)c3nc(NCC(C)O)nc(CCc4ccc(OC)c(OC)c4)c3n2)cc1` (stereo not drawn) [V]: the IC50 in the data set with COR-L23 cells was 4 nM.

As for `CCN(CC)CC1CCN(c2ncc3ncnc(Nc4ccc(F)c(Cl)c4)c3n2)CC1` [compound III], the “Activity as EGFR tyrosine kinase inhibitors” value with EGFR was “nanomolar range”.

Regarding `COc1ccc(NC(=O)OC(C)CCc2nc(NCc3ccc(OC)c(OC)c3)c3nc(NCC(C)OC(=O)CCC(=O)O)nc(CCc4ccc(OC)c(OC)c4)c3n2)cc1` (stereo not drawn) [VI], in the data set on COR-L23 cells, the IC50 is 7 nM.

On to `O=C(NNc1ncnc2c(Nc3ccc(OC(F)(F)F)cc3)ncnc12)c1ccccc1` [PP, N’-(8-((4-(Trifluoromethoxy)phenyl)amino)pyrimido[5,4-d]pyrimidin-4-yl)benzohydrazide], for which the figures for the IC50 with HCT 116 cells and with MDA-MB-231 cells were 2040 ± 450 nM and 5240 ± 240 nM, respectively. In addition, in “Aqueous solubility”, the “Solubility in aqueous medium” value was “poor solubility in aqueous medium”.
